The values that follow come from paper PMC3663881 (Journal of biomolecular screening, 2013).

The IC50 is the concentration needed to halve the response being measured. High values mean a need for much substance, low ones inhibition by little substance.

Data set [1] concerns the target RhaS (Escherichia coli, UniProt P09377, L201R). The experiment in a line: EMSA, inhibition of DNA binding by purified protein. A general note: A gel shift assay detects complexes by their altered migration in electrophoresis.
Data set [2] deals with RhaR (Escherichia coli, UniProt P09378). Described as above.
Data set [3] concerns the target T1, GB1b-RhaR (UniProt P09378 1-282).
T1 sequence: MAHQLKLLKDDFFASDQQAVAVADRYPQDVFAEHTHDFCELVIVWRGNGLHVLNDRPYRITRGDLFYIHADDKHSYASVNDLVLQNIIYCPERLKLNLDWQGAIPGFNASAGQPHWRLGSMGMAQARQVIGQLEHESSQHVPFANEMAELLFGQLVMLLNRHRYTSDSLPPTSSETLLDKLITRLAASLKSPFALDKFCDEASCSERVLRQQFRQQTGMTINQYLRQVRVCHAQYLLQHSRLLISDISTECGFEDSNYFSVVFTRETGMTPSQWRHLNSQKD
Description: EMSA.

Data set [4] has as its target LacI (UniProt P03023 1-360). The experiment in a line: EMSA.

Chain of LacI (P03023 whole entry): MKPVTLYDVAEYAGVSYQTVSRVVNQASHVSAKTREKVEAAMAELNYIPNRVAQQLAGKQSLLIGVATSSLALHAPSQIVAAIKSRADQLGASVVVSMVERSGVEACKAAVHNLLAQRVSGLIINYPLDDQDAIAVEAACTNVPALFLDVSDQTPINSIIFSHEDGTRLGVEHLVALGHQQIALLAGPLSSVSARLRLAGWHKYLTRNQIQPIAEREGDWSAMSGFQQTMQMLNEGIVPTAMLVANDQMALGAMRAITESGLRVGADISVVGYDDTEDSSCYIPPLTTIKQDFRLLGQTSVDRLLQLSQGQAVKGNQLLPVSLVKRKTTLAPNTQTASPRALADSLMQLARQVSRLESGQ
Chain of RhaS (P09377 whole entry L201R): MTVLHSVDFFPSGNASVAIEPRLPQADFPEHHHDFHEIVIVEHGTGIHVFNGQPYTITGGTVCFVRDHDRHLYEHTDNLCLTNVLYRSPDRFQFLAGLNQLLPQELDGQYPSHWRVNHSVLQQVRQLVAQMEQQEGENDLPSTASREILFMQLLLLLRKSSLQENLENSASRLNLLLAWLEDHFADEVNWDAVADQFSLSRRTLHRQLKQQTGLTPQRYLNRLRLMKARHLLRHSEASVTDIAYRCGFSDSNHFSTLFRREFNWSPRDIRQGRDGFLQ

As for `CCCCN1C=C(c2ccc3ccccc3n2)C(C[N+](=O)[O-])c2ccccc21` (stereo not shown) [OSSL_051168, 1-butyl-4-nitromethyl-3-quinolin-2-yl-4H-quinoline], the IC50 in data set [1] is ~70 µM; in data set [2], ~140 µM.

B1: RhaR site probe (oligos 3056/3287) (dsDNA)
DNA 1: CGCTGTATCTTGAAAAATCGACGTTTTTTACGTGGTTTTCCGTCGAAAATTTAAGGTAAGAAC
DNA 2: GTTCTTACCTTAAATTTTCGACGGAAAACCACGTAAAAAACGTCGATTTTTCAAGATACAGCG
With B1, the binding result in data set [3] is given as “binds”.

B2: lac O1 probe (IR O1-For/O1-Rev) (dsDNA)
DNA 1: TGTTGTGTGGAATTGTGAGCGGATAACAATTTCACACAGG
DNA 2: CCTGTGTGAAATTGTTATCCGCTCACAATTCCACACAACA
Turning to B2, the binding result in data set [4] was “binds”.
